According to the supplement of paper PMC11451515:

Columns and labels:
Conditions in all cases: 48 h
SEM cells [1] = experiment: AUC of viability dose-response curve (% viability x log10 dose units); higher = less sensitive
Summary of the method: (§1)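 Leukemia cells adapted to each medium were seeded in 1536-well plates (500 or 1000 cells/well). They were dosed with library compounds in DMSO at 11 threefold doses, 47 μM to 0.79 nM, for 48 h at 37°C. CellTiter-Glo One luminescence was normalised per plate to DMSO and cell-free wells. Area under the curve was integrated by trapezoidal rule over log10 doses on a four-parameter log-logistic fit; curves exceeding full viability were scaled and curves failing quality control removed.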

P12-Ichikawa [2] = experiment: as above
Summary of the method: as §1

NOMO1 [3] = experiment: as above
Summary of the method: as §1

SEM cells [4] = experiment: cell viability relative to DMSO control; higher = less cytotoxic
Summary of the method: (§2)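 Cells were incubated for 48 h at 37°C before CellTiter-Glo One luminescence was read. The cells were NOMO1 or SEM (500 cells/well) or P12-Ichikawa (1000 cells/well) leukemia cells, adapted for at least four passages in each medium and seeded in 1536-well plates (5 μl). Dosing used library compounds in DMSO applied by pin over 11 threefold points, 47 μM to 0.79 nM. Viability is the per-plate percentage of DMSO wells, with cell-free wells as background.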

P12-Ichikawa [5] = experiment: as above
Summary of the method: as §2

NOMO1 [6] = experiment: as above
Summary of the method: as §2

Cc1cc2c(F)c(Oc3ncnn4cc(OC[C@@H](C)O)c(C)c34)ccc2[nH]1
AUC of viability dose-response curve
Conditions | NOMO1 [3] | P12-Ichikawa [2] | SEM cells [1]
HPLM + 10% dialyzed FBS | 459 | 442 | 394
RPMI 5 mM glucose + 10% FBS | 453 | 454 | 372
RPMI 5 mM glucose + 10% dialyzed FBS | 446 | 448 | 380

cell viability [%]
Conditions | NOMO1 [6] | P12-Ichikawa [5] | SEM cells [4]
HPLM + 10% dialyzed FBS, 0.000781 µM | 107 | 115 | 107
HPLM + 10% dialyzed FBS, 0.00234 µM | 87.6 | 105 | 108
HPLM + 10% dialyzed FBS, 0.00702 µM | 103 | 102 | 101
HPLM + 10% dialyzed FBS, 0.0211 µM | 103 | 106 | 102
HPLM + 10% dialyzed FBS, 0.0632 µM | 97.5 | 111 | 106
HPLM + 10% dialyzed FBS, 0.19 µM | 90.4 | 106 | 104
HPLM + 10% dialyzed FBS, 0.569 µM | 99.2 | 97.2 | 88.7
HPLM + 10% dialyzed FBS, 1.71 µM | 101 | 97.5 | 83.2
HPLM + 10% dialyzed FBS, 5.12 µM | 98.4 | 96.9 | 70.5
HPLM + 10% dialyzed FBS, 15.4 µM | 88.9 | 73.9 | 38.6
HPLM + 10% dialyzed FBS, 46.1 µM | 69.6 | 52 | 26.6
RPMI 5 mM glucose + 10% FBS, 0.000781 µM | 86.5 | 97.7 | 117
RPMI 5 mM glucose + 10% FBS, 0.00234 µM | 103 | 107 | 117
RPMI 5 mM glucose + 10% FBS, 0.00702 µM | 101 | 101 | 141
RPMI 5 mM glucose + 10% FBS, 0.0211 µM | 105 | 98.1 | 124
RPMI 5 mM glucose + 10% FBS, 0.0632 µM | 98.2 | 101 | 110
RPMI 5 mM glucose + 10% FBS, 0.19 µM | 98.1 | 109 | 99.4
RPMI 5 mM glucose + 10% FBS, 0.569 µM | 94.1 | 104 | 100
RPMI 5 mM glucose + 10% FBS, 1.71 µM | 88.6 | 99 | 85.3
RPMI 5 mM glucose + 10% FBS, 5.12 µM | 88.8 | 98.8 | 77.6
RPMI 5 mM glucose + 10% FBS, 15.4 µM | 97 | 80.7 | 39.7
RPMI 5 mM glucose + 10% FBS, 46.1 µM | 83.6 | 55.8 | 26.2
RPMI 5 mM glucose + 10% dialyzed FBS, 0.000781 µM | 88.5 | 102 | 87.5
RPMI 5 mM glucose + 10% dialyzed FBS, 0.00234 µM | 104 | 100 | 92.6
RPMI 5 mM glucose + 10% dialyzed FBS, 0.00702 µM | 102 | 97.3 | 103
RPMI 5 mM glucose + 10% dialyzed FBS, 0.0211 µM | 92 | 101 | 102
RPMI 5 mM glucose + 10% dialyzed FBS, 0.0632 µM | 90.3 | 104 | 92.9
RPMI 5 mM glucose + 10% dialyzed FBS, 0.19 µM | 100 | 102 | 89.3
RPMI 5 mM glucose + 10% dialyzed FBS, 0.569 µM | 98.7 | 95.7 | 92.4
RPMI 5 mM glucose + 10% dialyzed FBS, 1.71 µM | 84.9 | 97.8 | 79.3
RPMI 5 mM glucose + 10% dialyzed FBS, 5.12 µM | 109 | 90.1 | 70.3
RPMI 5 mM glucose + 10% dialyzed FBS, 15.4 µM | 79.8 | 79.3 | 26
RPMI 5 mM glucose + 10% dialyzed FBS, 46.1 µM | 67.1 | 52.3 | 13.7
